Measured values: PubChem BioAssay (NCI)
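How tested: cells in 96-well plates exposed to compound for 48 hours at five concentrations. GI50 is the concentration that inhibits growth by half. Definition used: TGI = concentration required for complete inhibition of growth.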

Assays:
Experiment in all cases: inhibition of tumour cell growth, NCI panel, 48 h
[1] = test system: RXF 393 renal
[2] = test system: K-562 leukemia
[3] = test system: HCT-116 colon
[4] = test system: NCI-H23 lung
[5] = test system: HOP-62 NSCLC
[6] = test system: HOP-92 NSCLC
[7] = test system: NCI-H460 lung
[8] = test system: CAKI-1 renal
[9] = test system: HCT-15 colon

COC(=O)CCC(=O)CC1CC(=O)C2CCCN12 (stereo not drawn)
TGI [1]: > 100 µM
TGI [2]: > 100 µM
TGI [3]: > 100 µM
TGI [4]: > 100 µM
TGI [5]: > 100 µM
TGI [6]: > 100 µM
TGI [7]: > 100 µM
TGI [8]: > 100 µM

O=c1[nH]c2cc(Cl)ccc2nc1/C(=N\O)C(O)c1ccc(Cl)cc1Cl (stereo not drawn)
TGI [1]: > 100 µM
TGI [2]: > 100 µM
TGI [3]: > 100 µM
TGI [4]: > 100 µM
TGI [5]: > 100 µM
TGI [9]: > 100 µM
TGI [6]: > 100 µM
TGI [7]: > 100 µM
TGI [8]: > 100 µM

COc1cccc(-n2c3nc(=O)n(C)c(=O)c-3nc3ccccc32)c1
TGI [2]: > 100 µM
TGI [3]: > 100 µM
TGI [4]: 62 µM
TGI [5]: > 100 µM
TGI [9]: 66.3 µM
TGI [6]: 72.5 µM
TGI [7]: 33.4 µM
TGI [8]: > 100 µM

O=C1[C@H]2ON(c3ccccc3)C(c3ccc(Cl)cc3)[C@H]2C(=O)N1c1ccc(Cc2ccc(N3C(=O)[C@@H]4ON(c5ccccc5)C(c5ccc(Cl)cc5)[C@@H]4C3=O)cc2)cc1 (stereo partly drawn)
TGI [1]: > 100 µM
TGI [2]: > 100 µM
TGI [3]: > 100 µM
TGI [4]: > 100 µM
TGI [5]: > 100 µM
TGI [9]: > 100 µM
TGI [7]: > 100 µM
TGI [8]: > 100 µM

COC(=O)/C(C#N)=C1\CCC(O)N1 (stereo not drawn)
TGI [1]: > 100 µM
TGI [2]: > 100 µM
TGI [3]: > 100 µM
TGI [4]: > 100 µM
TGI [5]: > 100 µM
TGI [7]: > 100 µM
TGI [8]: > 100 µM

CN[C@@H](C)[C@H](NC)c1ccccc1
TGI [1]: > 100 µM
TGI [2]: > 100 µM
TGI [3]: > 100 µM
TGI [4]: > 100 µM
TGI [9]: > 100 µM
TGI [6]: > 100 µM
TGI [8]: > 100 µM

Cc1cc(C)c(C2[C@H]3C(=O)N(c4ccc(Cc5ccc(N6C(=O)[C@@H]7ON(c8ccccc8)C(c8c(C)cc(C)cc8C)[C@@H]7C6=O)cc5)cc4)C(=O)[C@H]3ON2c2ccccc2)c(C)c1 (stereo partly drawn)
TGI [1]: > 100 µM
TGI [2]: > 100 µM
TGI [3]: > 100 µM
TGI [4]: > 100 µM
TGI [5]: > 100 µM
TGI [9]: > 100 µM
TGI [7]: > 100 µM
TGI [8]: > 100 µM

CN(C)C(=S)/N=c1\ss/c(=N\C(=S)N(C)C)n1-c1ccc(Cl)c(Cl)c1
TGI [1]: > 100 µM
TGI [2]: > 100 µM
TGI [3]: > 100 µM
TGI [4]: > 100 µM
TGI [5]: > 100 µM
TGI [9]: > 100 µM
TGI [7]: > 100 µM
TGI [8]: > 100 µM

O=C1CC2C(=O)N(Cc3ccccc3)C1C=C2S(=O)(=O)c1ccccc1 (stereo not drawn)
TGI [1]: > 100 µM
TGI [2]: > 100 µM
TGI [3]: > 100 µM
TGI [4]: > 100 µM
TGI [5]: > 100 µM
TGI [6]: > 100 µM
TGI [7]: > 100 µM

CC(=O)c1sc(-c2nc(C)c(C(=O)/C=C\c3ccc(/C=C\C(=O)c4sc(-c5nc(C)c(C(C)=O)s5)nc4C)cc3)s2)nc1C
TGI [1]: > 100 µM
TGI [2]: > 100 µM
TGI [3]: > 100 µM
TGI [4]: > 100 µM
TGI [5]: > 100 µM
TGI [9]: > 100 µM
TGI [7]: > 100 µM
TGI [8]: > 100 µM

CC(C)(C=O)CC(C#N)/C(=N\NC(N)=O)C(=O)Nc1ccccc1C(N)=O (stereo not drawn)
TGI [2]: > 100 µM
TGI [3]: > 100 µM
TGI [4]: > 100 µM
TGI [5]: > 100 µM
TGI [9]: > 100 µM
TGI [6]: > 100 µM
TGI [7]: > 100 µM
TGI [8]: > 100 µM

C=CCNC(=O)N(CCC)CCCCC(NC(C)=O)C(=O)NCc1ccccc1 (stereo not drawn)
TGI [1]: > 100 µM
TGI [2]: > 100 µM
TGI [4]: > 100 µM
TGI [5]: > 100 µM
TGI [9]: > 100 µM
TGI [6]: > 100 µM
TGI [7]: > 100 µM
TGI [8]: > 100 µM

Cc1ccc(C2(O)CC(c3ccc([N+](=O)[O-])o3)=NN2C(=O)COc2ccc(Cl)cc2)cc1 (stereo not drawn)
TGI [2]: > 100 µM
TGI [3]: 22.2 µM
TGI [4]: 11.9 µM
TGI [5]: 18.2 µM
TGI [9]: 17.7 µM
TGI [6]: 24.3 µM
TGI [7]: 20.7 µM
TGI [8]: 67.5 µM

Nc1nc(CCl)nc(Nc2ccccc2)n1
TGI [3]: 43.5 µM
TGI [4]: 38.7 µM
TGI [5]: 38.8 µM
TGI [6]: 33.6 µM
TGI [7]: 39.3 µM
TGI [8]: 24.8 µM

N.N.N.N.[Cl-].[Co+3].[N-]=[N+]=[N-].[N-]=[N+]=[N-]
GI50 [2]: > 100 µM
TGI [2]: > 100 µM
GI50 [3]: > 100 µM
TGI [3]: > 100 µM
GI50 [4]: > 100 µM
TGI [4]: > 100 µM
GI50 [5]: > 100 µM
TGI [5]: > 100 µM
GI50 [9]: > 100 µM
TGI [9]: > 100 µM
GI50 [6]: > 100 µM
TGI [6]: > 100 µM
GI50 [7]: > 100 µM
TGI [7]: > 100 µM

CC1(C)O/C(=C\c2ccccc2)C(=O)/C(=C/c2ccccc2)O1
TGI [1]: 47.6 µM
TGI [2]: > 100 µM
TGI [3]: > 100 µM
TGI [4]: > 100 µM
TGI [5]: > 100 µM
TGI [6]: > 100 µM
TGI [7]: > 100 µM
TGI [8]: > 100 µM

Nc1ccn(C2(CO)C=C(CO)C(O)C2O)c(=O)n1 (stereo not drawn)
TGI [1]: > 25.8 µM
TGI [2]: > 25.8 µM
TGI [3]: > 25.8 µM
TGI [5]: > 25.8 µM
TGI [9]: > 25.8 µM
TGI [7]: > 25.8 µM
TGI [8]: > 25.8 µM

CCOC(=N)CC(=O)Nc1cccc(C)c1C
TGI [1]: > 100 µM
TGI [3]: > 100 µM
TGI [4]: > 100 µM
TGI [5]: > 100 µM
TGI [7]: > 100 µM
TGI [8]: > 100 µM
